Columns and labels:
[1] = test system: IL-2 promoter; assay: IL-2 promoter luciferase reporter assay in anti-CD3 activated Jurkat cells; type: cell-based; conditions: Homo sapiens, TCR-induced (anti-CD3) IL-2 promoter luciferase, 2 h pre-incubation
Procedure: In order to confirm whether the compounds of the invention can pass through a cell membrane and inhibit the expression of IL-2 gene leading to T-cell proliferation, the present inventors firstly confirmed T-cell activity by detecting the activity of the luciferase fused on the downstream of IL-2 promoter.
To investigate the activity of IL-2 promoter, Jurkat cells (1×10^6) were transfected with a IL-2 reporter plasmids using Superfect™ (Qiagen Inc.). After 24 hours of transfection, Jurkat cells were pre-incubated with compounds of various concentrations (1 uM-50 uM) for 2 hours and further cultured on 35mm plate pre-coated with 5 ug/ml of anti-CD3 antibody, resulting in T cell activation. The luciferase activity was measured using Berthold luminometer LB953. The IC50 (50% inhibition concentration) of the compounds of the invention on TCR-induced IL-2 promoter activation are shown in Table 2.

[2] = test system: collagen-induced rheumatoid arthritis; assay: Inhibition of collagen-induced rheumatoid arthritis in DBA1/LacJ mice; type: in vivo, mouse; parameters: key: sum of 4 leg scores (0-4 each), max 16; conditions: maximum 16, mean ± standard deviation
Procedure: After 2 weeks, booster immunization was carried out with 50 μg C II/IFA. From the 3rd week after primary immunization, compounds of the present invention were injected daily into peritoneal cavities of 6-8 mice per group for 15-20 days.
The vehicle control groups were injected daily with 100 μl of 5% ethanol-olive oil mixture in total 15-20 times. Widely used anti-rheumatic drug, Methotrexate, was dissolved in PBS and then injected to mice at 1 mg/kg/day every other day in total 8-10 times. Meanwhile, the compounds of the invention were dissolved in ethanol and then mulsified in olive oil, in which the final ethanol concentration was adjusted to 5% and the compounds of this invention was 50 mg/kg/day.
From the 3rd week after primary immunization, the extent of edema and the joint swelling was monitored everyday to determine arthritic index. Arthitic index is the sum of the arthritic scores of all 4 legs and, therefore, maximum arthritis index of 16 can be achieved (e.g., [4 (maximum arthritic score)/leg]×[4 legs/mouse]=16 (maximum arthritis index/mouse)). […] was presented by the mean arthritis index±standard deviation of each mouse group.

[3] = target: T1, GST-fused lck SH2 domain (Homo sapiens, UniProt P06239); assay: Inhibition of in vitro binding of lck SH2 domain to its cognate pYEEI peptide (BIAcore 2000); conditions: IC50 class for inhibition of GST-lckSH2 binding to immobilized biotinylated […]pYEEIPI peptide; read-out: BOND DEGREE WITH SH2 OF 1ck
T1 construct: GST (Glutathione transferase)-fused lck SH2 domain
T1 sequence (P06239 127-224 limits assumed): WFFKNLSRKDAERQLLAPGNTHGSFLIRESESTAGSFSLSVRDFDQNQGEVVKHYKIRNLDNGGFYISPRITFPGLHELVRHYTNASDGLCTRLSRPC
Procedure: The present inventors investigated the inhibition activity of phenyl derivatives on the interaction of GST (Glutathione transferase)-fused lck SH2 domain and a peptide […]pYEEIPI (comprising the sequence PYEEI, a cognate peptide of Lck SH2) by using a real time sensorgram (BIAcore 2000).
At first, the biotinylated peptide was fixed on the surface of BIAcore analysis apparatus and then GST-lckSH2 protein was injected over the surface of the immobilized peptides. The binding of GST-lck SH2 with the peptide is represented as the resonance units (referred as “RU” hereinafter) and 1,000 RU corresponds to a change in surface concentration of 1 ng/mm^2. The binding of GST-lck with the fixed peptide causes the change of refractory index, leading to the increase of RU. In the mean time, when the binding of GST-lck with the fixed peptide is inhibited, RU decreases. Those results are represented in Table 1.

[4] = 50 mg/kg/day i.p. daily, day 15 after treatment (day 36 after primary immunization), sum of scores of four legs

Structure (SMILES) | IC50 [1] [µM] | IC50 [3] [µM] | Arthritis index [2, 4] | Arthritis index ([2]; Methotrexate 1 mg/kg/day every other day in PBS, day 15 after treatment)
COC(=O)[C@@H](Cc1ccc(O)c(O)c1)NC(=S)/C=C/c1ccc(O)c(O)c1 [Example 15, 3-(3,4-dihydroxy-phenyl)-(R)-2-[3-trans-(3,4-dihydroxy-phenyl)-thioacryloylamino]-propionic acid methyl ester] | 17.1 | 10 to 25 | 5.7 ± 0.9 | –
CN(C(=O)/C=C/c1ccc(O)c(O)c1)[C@H](Cc1ccc(O)c(O)c1)C(=O)O [Example 30] | 15.8 | 25 to 50 | 6.5 ± 0.6 | –
CCCOC(=O)[C@@H](Cc1ccc(O)c(O)c1)NC(=S)/C=C/c1ccc(O)c(O)c1 [Example 18, 3-(3,4-dihydroxy-phenyl)-(R)-2-[3-trans-(3,4-dihydroxy-phenyl)-thioacryloylamino]-propionic acid propyl ester] | 5.6 | 10 to 25 | 5.8 ± 0.3 | –
CCOC(=O)[C@@H](Cc1ccc(O)c(O)c1)NC(=O)/C=C/c1ccc(O)c(O)c1 [Example 3, 3-(3,4-dihydroxy-phenyl)-(R)-2-[3-trans-(3,4-dihydroxy-phenyl)-acryloylamino]-propionic acid ethyl ester] | 4.8 | < 10 | 4.5 ± 0.8 | –
CC(C)OC(=O)[C@H](Cc1ccc(O)c(O)c1)N(C)C(=O)/C=C/c1ccc(O)c(O)c1 [Example 40, 3-(3,4-dihydroxy-phenyl)-(S)-2-{[3-trans-(3,4-dihydroxy-phenyl)-acryloyl]-methyl-amino}-propionic acid isopropyl ester] | 8.7 | 10 to 25 | 5.9 ± 0.4 | –
CCOC(=O)[C@H](Cc1ccc(O)c(O)c1)NC(=S)/C=C/c1ccc(O)c(O)c1 [Example 24, 3-(3,4-dihydroxy-phenyl)-(S)-2-[3-trans-(3,4-dihydroxy-phenyl)-thioacryloylamino]-propionic acid ethyl ester] | 10.8 | 10 to 25 | 6.1 ± 0.6 | –
CN(Cc1cnc2nc(N)nc(N)c2n1)c1ccc(C(=O)N[C@@H](CCC(=O)O)C(=O)O)cc1 [MTX, methotrexate, reference compound] | – | – | – | 4.0 ± 1.1
O=C(O)[C@@H](Cc1ccc(O)c(O)c1)NC(=S)/C=C/c1ccc(O)c(O)c1 [Example 16, 3-(3,4-dihydroxy-phenyl)-(R)-2-[3-trans-(3,4-dihydroxy-phenyl)-thioacryloylamino]-propionic acid] | 6.7 | 25 to 50 | 7.2 ± 1.2 | –
CCOC(=O)[C@@H](Cc1ccc(O)c(O)c1)N(C)C(=O)/C=C/c1ccc(O)c(O)c1 [Example 31] | 8.9 | 10 to 25 | 5.9 ± 2.1 | –
CC(C)OC(=O)[C@@H](Cc1ccc(O)c(O)c1)NC(=S)/C=C/c1ccc(O)c(O)c1 [Example 19, 3-(3,4-dihydroxy-phenyl)-(R)-2-[3-trans-(3,4-dihydroxy-phenyl)-thioacryloylamino]-propionic acid isopropyl ester] | 8.9 | 10 to 25 | 5.1 ± 1.1 | –
NC(=O)[C@@H](Cc1ccc(O)c(O)c1)NC(=S)/C=C/c1ccc(O)c(O)c1 [Example 21, 3-(3,4-dihydroxy-phenyl)-(R)-2-[3-trans-(3,4-dihydroxy-phenyl)-thioacryloylamino]-propioneamide] | 7.8 | 10 to 25 | 5.8 ± 1.3 | –
COC(=O)[C@H](Cc1ccc(O)c(O)c1)NC(=S)/C=C/c1ccc(O)c(O)c1 [Example 22] | 13.9 | 25 to 50 | 6.9 ± 1.2 | –
CC(C)OC(=O)[C@@H](Cc1ccc(O)c(O)c1)NC(=O)/C=C/c1ccc(O)c(O)c1 [Example 5, 3-(3,4-dihydroxy-phenyl)-(R)-2-[3-trans-(3,4-dihydroxy-phenyl)-acryloylamino]-propionic acid isopropyl ester] | 6.5 | < 10 | 4.9 ± 1.2 | –
CC(C)OC(=O)[C@H](Cc1ccc(O)c(O)c1)NC(=S)/C=C/c1ccc(O)c(O)c1 [Example 26, 3-(3,4-dihydroxy-phenyl)-(S)-2-[3-trans-(3,4-dihydroxy-phenyl)-thioacryloylamino]-propionic acid isopropyl ester] | 18.7 | 25 to 50 | 7.0 ± 0.9 | –
CC(C)OC(=O)[C@@H](Cc1ccc(O)c(O)c1)N(C)C(=O)/C=C/c1ccc(O)c(O)c1 [Example 33, 3-(3,4-dihydroxy-phenyl)-(R)-2-{[3-trans-(3,4-dihydroxy-phenyl)-acryloyl]-methyl-amino}-propionic acid isopropyl ester] | 7.8 | 10 to 25 | 5.7 ± 0.9 | –
CN(C(=O)/C=C/c1ccc(O)c(O)c1)[C@H](Cc1ccc(O)c(O)c1)C(=O)OC(C)(C)C [Example 34, 3-(3,4-dihydroxy-phenyl)-(R)-2-{[3-trans-(3,4-dihydroxy-phenyl)-acryloyl]-methyl-amino}-propionic acid tert-butyl ester] | 14.9 | 25 to 50 | 6.3 ± 0.8 | –

Now from value to molecule, other results behind:

IC50 [1] [µM] | IC50 [3] [µM] | Structure (SMILES) | Arthritis index [2, 4] | Arthritis index ([2]; Methotrexate 1 mg/kg/day every other day in PBS, day 15 after treatment)
17.3 | 25 to 50 | CN(C(=O)/C=C/c1ccc(O)c(O)c1)[C@@H](Cc1ccc(O)c(O)c1)C(=O)O [Example 37, 3-(3,4-dihydroxy-phenyl)-(S)-2-{[3-trans-(3,4-dihydroxy-phenyl)-acryloyl]-methyl-amino}-propionic acid] | 6.7 ± 0.7 | –
7.6 | 10 to 25 | COC(=O)[C@@H](Cc1ccc(O)c(O)c1)N(C)C(=O)/C=C/c1ccc(O)c(O)c1 [Example 29, 3-(3,4-dihydroxy-phenyl)-(R)-2-{[3-trans-(3,4-dihydroxy-phenyl)-acryloyl]-methyl-amino}-propionic acid methyl ester] | 6.1 ± 2.1 | –
7.8 | 10 to 25 | COC(=O)[C@@H](Cc1ccc(O)cc1)NC(=O)/C=C/c1ccc(O)c(O)c1 [Example 45] | 5.7 ± 0.9 | –
7.8 | 10 to 25 | CC(C)(C)OC(=O)[C@@H](Cc1ccc(O)c(O)c1)NC(=O)/C=C/c1ccc(O)c(O)c1 [Example 6, 3-(3,4-dihydroxy-phenyl)-(R)-2-[3-trans-(3,4-dihydroxy-phenyl)-acryloylamino]propionic acid tert-butyl ester] | 5.8 ± 0.9 | –
9 | 10 to 25 | CCCOC(=O)[C@@H](Cc1ccc(O)c(O)c1)N(C)C(=O)/C=C/c1ccc(O)c(O)c1 [Example 32] | 5.3 ± 1.7 | –
7.8 | < 10 | CCCOC(=O)[C@@H](Cc1ccc(O)c(O)c1)NC(=O)/C=C/c1ccc(O)c(O)c1 [Example 4, 3-(3,4-dihydroxy-phenyl)-(R)-2-[3-trans-(3,4-dihydroxy-phenyl)-acryloylamino]-propionic acid propyl ester] | 5.6 ± 0.5 | –
– | 25 to 50 | COC(=O)[C@@H](Cc1ccc(O)c(O)c1)NC/C=C/c1ccc(O)c(O)c1 [Example 53, 3-(3,4-dihydroxy-phenyl)-2-[3-(3,4-dihydroxy-phenyl)-arylamino]-propionic acid methyl ester] | – | –
11 | 10 to 25 | CCOC(=O)[C@H](Cc1ccc(O)c(O)c1)N(C)C(=O)/C=C/c1ccc(O)c(O)c1 [Example 38, 3-(3,4-dihydroxy-phenyl)-(S)-2-{[3-trans-(3,4-dihydroxy-phenyl)-acryloyl]-methyl-amino}-propionic acid ethyl ester] | 5.5 ± 1.3 | –
21.4 | 25 to 50 | CC(C)(C)OC(=O)[C@@H](Cc1ccc(O)c(O)c1)NC(=S)/C=C/c1ccc(O)c(O)c1 [Example 20, 3-(3,4-dihydroxy-phenyl)-(R)-2-[3-trans-(3,4-dihydroxy-phenyl)-thioacrylolamino]-propionic acid tert-butyl ester] | 6.7 ± 0.4 | –

— patent US20040082664A1, “Derivatives of hydroxyphenyl, a method for preparing thereof and their pharmaceutical composition” (priority 2002, published 2004)
